# Laboratory results taken from article PMC7142633, “Impact of B-Ring Substitution and Acylation with Hydroxy Cinnamic Acids on the Inhibition of Porcine α-Amylase by Anthocyanin-3-Glycosides” (Foods, 2020).
# Where two headings read alike, the source gives them in different places. Marks after values point to notes of the source that are not given here.
# Experiments:
# [1] = biological target: T1, α-amylase from porcine pancreas (Sus scrofa, UniProt P00690); experiment: Isothermal titration calorimetry, single injection, GalG2CNP conversion; assay type: biochemical; settings: 100 µM inhibitor, 0.95 mM substrate, 37 °C
# T1 construct: A saline suspension of α-amylase from porcine pancreas; purchased Sigma Aldrich (Steinheim, Germany) Lot #SLBN9170V (catalogue number not given); host or cells: porcine pancreas (tissue-derived)
# T1 sequence (P00690 16-511): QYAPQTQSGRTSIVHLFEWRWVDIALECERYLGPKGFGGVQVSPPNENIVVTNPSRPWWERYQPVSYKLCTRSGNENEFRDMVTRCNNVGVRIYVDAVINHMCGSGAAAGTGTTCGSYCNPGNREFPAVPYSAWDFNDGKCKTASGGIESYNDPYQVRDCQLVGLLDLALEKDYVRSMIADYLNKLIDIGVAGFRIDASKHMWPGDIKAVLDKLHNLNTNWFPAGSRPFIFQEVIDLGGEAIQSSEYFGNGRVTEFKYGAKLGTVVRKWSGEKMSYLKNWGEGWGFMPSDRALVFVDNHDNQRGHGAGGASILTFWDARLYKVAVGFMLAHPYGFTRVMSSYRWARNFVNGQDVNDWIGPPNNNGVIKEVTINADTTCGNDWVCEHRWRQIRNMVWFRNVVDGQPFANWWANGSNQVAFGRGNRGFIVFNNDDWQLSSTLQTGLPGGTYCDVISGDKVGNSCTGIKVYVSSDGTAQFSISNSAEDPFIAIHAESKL
# Protocol: To evaluate the inhibitory strength of 100 µM anthocyanin-3-glucosides and black carrot anthocyanins, GalG2CNP conversion to CNP was monitored by the released heat. According to the previous study, ITC measurements were carried out in a single injection experiment set-up on a MICROCALTM PEAQ-ITC calorimeter (S/N MAL1188053, Malvern Panalytical Almelo, Netherlands). Following an equilibration time of 10 min, 1 µL α-amylase (1 µM in 50 mM MES^+ buffer) was added to 0.95 mM of the substrate with or without 100 µM of the phenolic inhibitor in the cell (Vcell = 0.207 mL). The temperature was maintained at 37 °C and the sample was stirred at 750 rpm throughout. The feedback/gain mode was set to high. The resulting heat profile was transformed and the conversion rate was plotted against the substrate concentration [S] by an origin routine template provided by Malvern® for Origin version 7.
# [2] = biological target: T1, α-amylase from porcine pancreas; experiment: α-amylase enzyme activity assay, GalG2CNP conversion, UV/Vis detection of CNP at 405 nm; assay type: biochemical; settings: for IC50: read-out: IC50 (Cheng−Prussoff, Equation (9)); for Kmapp / vmaxapp: Michaelis Menten fit
# Protocol: The enzyme activity assay, […], was established by Homoki and co-workers and already used by the authors to evaluate the inhibitory strength of different phenolic structures. To enable the evaluation of the result obtained in the present study compared to the non-anthocyanin phenolics investigated previously, the assay conditions were identical. In short, to 12 different GalG2CNP concentrations ([S] = 0−2000 µM) in MES^+ buffer, inhibitor [I] and 50 µL enzyme solution (c = 1.51 units/~100 pM, on the basis of supplier information) were mixed in a microtiter plate (Greiner BioOne, Frickenhausen, Germany; transparent, F-bottom). For blanks, the enzyme solution was substituted with MES^+ buffer. The final volume per well was 250 µL. To quantify the reaction product, a linear calibration with eight different CNP concentrations in the range of 0−35 µM was performed for each plate. Dilutions of the anthocyanin stock solutions (0.1% HCl) were equilibrated at pH 6.1 for one hour. Final inhibitor concentrations were limited due to its strong absorption at 405 nm to 12.5, 25, and 50 µM. For each anthocyanin structure, the assay was conducted on two to three different days with freshly prepared stocks of substrate, enzyme, and inhibitor.
# In addition to the Michaelis Menten constant (Km) and the maximal conversion rate (vmax) values (Table S1), inhibition constants (Kic, Kiu) were calculated by fitting the data by two approaches: (i) According to the mixed inhibition equation (Equation (4)) or competitive inhibition equation (Equation (5)), applying an optimal global fit containing data from all inhibitor concentrations including the control ([I] = 0 µM); and (ii) by an independent fit according to the Michaelis Menten equation (Equation (6)), providing the apparent values Km^app and Vmax^app (Table S2) for each inhibitor concentration, which were then used to calculate the inhibition constants (Equations (7) and (8)). (4) v0= vmax/Km/[S] · (1+[I]/Kic)+(1+[I]/Kiu), (5) v0=vmax/Km/[S] · ( 1+[I]/Kic)+1, (6) v0=vmax · [S]/Km+[S], (7) Kic=vmax^app/Km^app · [I]/vmax/Km−vmax^app/Km^app, (8) Kiu=vmax^app · [I]/vmax− vmax^app.
# The IC50 values of the different anthocyanins were derived from the inhibition constants for different substrate concentrations by the Cheng−Prusoff equation (Equation (9)). (9) IC50=(Km+[S])/Km/Kic+[S]/Kiu.
# • KM: Michaelis Menten constant (µM) • vmax: Maximal conversion rate of the uninhibited reaction (µM/min) • v0: Observed conversion rate at given substrate and inhibitor concentration (µM/min) • [S]: Substrate concentration • [I]: Inhibitor concentration • Kic: Inhibitor constant, reflecting the competitive inhibition in the equation (µM) • Kiu: Inhibitor constant, reflecting the uncompetitive inhibition in the equation (µM) • vmax^app: Calculated maximal conversion rate, when the Michaelis Menten equation is used on an inhibited curve (µM/min) • Km^app: Calculated Michaelis Menten constant, when the Michaelis Menten equation is used on an inhibited curve (µM) • IC50: Half maximal inhibitory concentration (inhibitor concentration needed to achieve 50% inhibition; it is dependent on the substrate concentration) (µM)
# For data analyses and calculations, Origin 2018b (OriginLab, software extension Enzyme Kinetics) was used. The Levenberg−Marquardt algorithm procedure was chosen for iteration. All assays were performed in two independent replicates at different dates. Values are expressed in arithmetic means ± average deviation (AD). The statistical significance and differences between groups were analyzed by one-way analysis of variance (ANOVA), followed by Tukey’s test. Differences were considered significant when p < 0.05. Data were processed using Microsoft Excel® (2010).
smiles,measurement,setting,value
"COc1cc(-c2[o+]c3cc(O)cc(O)c3cc2O[C@@H]2O[C@H](CO)[C@@H](O)[C@H](O)[C@H]2O)ccc1O [Peo-glc, peonidin-3-glucoside]","inhibitory strength by ITC (thermogram, Michaelis Menten plot)",[1],Mlv-3-glc > Cyd-3-glc > Dpd-3-glc~Peo-3-glc
same,IC50,"[2]; (i) Kic and Kiu by global fit, [S] 10 µM",112 ± 40 µM
same,IC50,"[2]; (i) Kic and Kiu by global fit, [S] 100 µM",134 ± 46 µM
same,IC50,"[2]; (i) Kic and Kiu by global fit, [S] 10^3 µM",209 ± 65 µM
same,IC50,"[2]; (i) Kic and Kiu by global fit, [S] 10^6 µM",258 ± 78 µM
same,Kic/Kiu,"[2]; (i) global fit, Equation (4)",0.42 ± 0.23 ^a
same,Ki,"[2]; (i) global fit, mixed inhibition Equation (4), read-out: Kic",109 ± 39 µM
same,Ki,"[2]; (i) global fit, mixed inhibition Equation (4), read-out: Kiu",258 ± 78 µM
same,IC50,"[2]; (ii) Kic and Kiu by independent fit, [S] 10 µM",121 ± 42 µM
same,IC50,"[2]; (ii) Kic and Kiu by independent fit, [S] 100 µM",142 ± 49 µM
same,IC50,"[2]; (ii) Kic and Kiu by independent fit, [S] 10^3 µM",212 ± 69 µM
same,IC50,"[2]; (ii) Kic and Kiu by independent fit, [S] 10^6 µM",254 ± 82 µM
same,Ki,"[2]; (ii) independent Michaelis Menten fit (Equation (6)), calculation by Equation (7), read-out: Kic",118 ± 42 µM
same,Ki,"[2]; (ii) independent Michaelis Menten fit (Equation (6)), calculation by Equation (8), read-out: Kiu",254 ± 82 µM
same,Kic/Kiu,"[2]; (ii) independent fit, Equations (7) and (8)",0.43 ± 0.04 **^a
same,Kmapp,[2]; inhibitor c 25 µM,242 ± 8 µM
same,vmaxapp,[2]; inhibitor c 25 µM,"0,74 ± 0,14 µM/min"
same,Kmapp,[2]; inhibitor c 50 µM,256 ± 7 µM
same,vmaxapp,[2]; inhibitor c 50 µM,"0,65 ± 0,05 µM/min"
same,Kmapp,"[2]; inhibitor c 12,5 µM",211 ± 15 µM
same,vmaxapp,"[2]; inhibitor c 12,5 µM","0,77 ± 0,12 µM/min"
same,Ki,"[2]; from apparent values, inhibitor c 25 µM, read-out: Kic",107 ± 15 µM
same,Ki,"[2]; from apparent values, inhibitor c 25 µM, read-out: Kiu",250 µM
same,Ki,"[2]; from apparent values, inhibitor c 50 µM, read-out: Kic",112 ± 45 µM
same,Ki,"[2]; from apparent values, inhibitor c 50 µM, read-out: Kiu",262 ± 92 µM
same,Ki,"[2]; from apparent values, inhibitor c 12,5 µM, read-out: Kic",180 µM
same,Ki,"[2]; from apparent values, inhibitor c 12,5 µM, read-out: Kiu",360 µM
same,Ki,"[2]; mean over inhibitor c 12,5, 25, 50 µM (Supplementary 2), read-out: Kic mean ± SD",133 ± 40 µM
same,Ki,"[2]; mean over inhibitor c 12,5, 25, 50 µM (Supplementary 2), read-out: Kiu mean ± SD",290 ± 61 µM
